Here are results for eight compounds from PubChem BioAssay AID270 (DTP/NCI, 2004).

Structures are written as SMILES. “And” between values parts separate entries of the source, which are not always exact repeats. Equal values may be shown once. Records with an inconclusive call do not appear.

The test system of this assay is BDF1 mice, s.c. Lewis lung carcinoma, T/C %. Nature of the assay: NCI In Vivo Anticancer Drug Screen. Data for tumor model Lewis Lung Carcinoma (subcutaneous) in B6D2F1 (BDF1) mice. The gist of the method: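 Tumor-bearing mice were treated with test compound, and either survival or tumor size was recorded. Values are the treated-group measurement divided by that of the vehicle-treated control group.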

For `C=CCNC(=O)NCC=C`, the T/C was 96 % of control (endpoint: mean tumor weight, dose: 25.0 mg/kg/injection, schedule: Q01DX011 (ip), vehicle: saline, higher = larger tumour); 28 % of control (endpoint: mean tumor weight, dose: 50.0 mg/kg/injection, schedule: Q01DX011 (ip), vehicle: saline, higher = larger tumour); 16 % of control (endpoint: mean tumor weight, dose: 100.0 mg/kg/injection, schedule: Q01DX011 (ip), vehicle: saline, higher = larger tumour); 43 % of control (endpoint: mean tumor weight, dose: 200.0 mg/kg/injection, schedule: Q01DX011 (ip), vehicle: saline, higher = larger tumour).

With `CCCNC(=NC)c1ccc(NC(=O)c2ccc(C(=O)Nc3ccc(C(=NC)NCCC)cc3)cc2)cc1`, the T/C was 124 % of control (endpoint: mean tumor weight, dose: 2.5 mg/kg/injection, schedule: Q01DX011 (ip), vehicle: other, higher = larger tumour) and 56 % of control (endpoint: mean tumor weight, dose: 5.0 mg/kg/injection, schedule: Q01DX011 (ip), vehicle: other, higher = larger tumour).

For the compound `Nc1ccn(C2OC(CO)C(O)C2O)c(=O)n1` (stereo unspecified), the T/C (endpoint: mean tumor weight, dose: 20.0 mg/kg/injection, schedule: Q01DX011 (ip), vehicle: saline, higher = larger tumour) is 55 % of control; the T/C (endpoint: mean tumor weight, dose: 40.0 mg/kg/injection, schedule: Q01DX011 (ip), vehicle: saline, higher = larger tumour) was 40 % of control; the T/C (endpoint: median survival time, dose: 1.0 mg/kg/injection, schedule: Q01DX011 (adlb), vehicle: water, higher = longer survival) is 110 % of control; the T/C (endpoint: median survival time, dose: 2.0 mg/kg/injection, schedule: Q01DX011 (adlb), vehicle: water, higher = longer survival) was 100 % of control; the T/C (endpoint: median tumor weight (est.), dose: 2.7 mg/kg/injection, schedule: Q03HX032 (ip), vehicle: saline, higher = larger tumour) was 43 % of control; the T/C (endpoint: median tumor weight (est.), dose: 4.0 mg/kg/injection, schedule: Q03HX024 (ip), vehicle: saline, higher = larger tumour) was 50 % of control. Moreover, the T/C was 36 % of control (endpoint: median tumor weight (est.), dose: 4.0 mg/kg/injection, schedule: Q03HX032 (ip), vehicle: saline, higher = larger tumour); 59 % of control (endpoint: median tumor weight (est.), dose: 5.3 mg/kg/injection, schedule: Q03HX016 (ip), vehicle: saline, higher = larger tumour); 34 % of control (endpoint: median tumor weight (est.), dose: 6.0 mg/kg/injection, schedule: Q03HX024 (ip), vehicle: saline, higher = larger tumour); 67 % of control (endpoint: median tumor weight (est.), dose: 8.0 mg/kg/injection, schedule: Q03HX016 (ip), vehicle: saline, higher = larger tumour); 62 % of control (endpoint: median tumor weight (est.), dose: 10.0 mg/kg/injection, schedule: Q03HX008 (ip), vehicle: saline, higher = larger tumour); 59 % of control (endpoint: median tumor weight (est.), dose: 10.0 mg/kg/injection, schedule: Q03HX032 (ip), vehicle: saline, higher = larger tumour). The T/C reads like this: (endpoint: median tumor weight (est.), dose: 12.0 mg/kg/injection, schedule: Q03HX016 (ip), vehicle: saline, higher = larger tumour) 32 % of control; (endpoint: median tumor weight (est.), dose: 12.5 mg/kg/injection, schedule: Q01DX009 (ip), vehicle: saline, higher = larger tumour) 93 % of control; (endpoint: median tumor weight (est.), dose: 15.0 mg/kg/injection, schedule: Q03HX032 (ip), vehicle: saline, higher = larger tumour) 55 % of control; (endpoint: median tumor weight (est.), dose: 16.0 mg/kg/injection, schedule: Q03HX008 (ip), vehicle: saline, higher = larger tumour) 57 % of control; (endpoint: median tumor weight (est.), dose: 20.0 mg/kg/injection, schedule: Q01DX015 (ip), vehicle: saline, higher = larger tumour) 74 % of control; (endpoint: median tumor weight (est.), dose: 20.0 mg/kg/injection, schedule: Q06HX020 (ip), vehicle: saline, higher = larger tumour) 70 % of control. Further, the T/C by setting is: (endpoint: median tumor weight (est.), dose: 20.0 mg/kg/injection, schedule: Q12HX027 (ip), vehicle: saline, higher = larger tumour) 62 % of control; (endpoint: median tumor weight (est.), dose: 22.5 mg/kg/injection, schedule: Q03HX032 (ip), vehicle: saline, higher = larger tumour) 48 % of control; (endpoint: median tumor weight (est.), dose: 24.0 mg/kg/injection, schedule: Q03HX008 (ip), vehicle: saline, higher = larger tumour) 54 % of control; (endpoint: median tumor weight (est.), dose: 25.0 mg/kg/injection, schedule: Q01DX009 (ip), vehicle: saline, higher = larger tumour) 100 % of control; (endpoint: median tumor weight (est.), dose: 26.0 mg/kg/injection, schedule: Q01DX011 (ip), vehicle: saline, higher = larger tumour) 68 % of control; (endpoint: median tumor weight (est.), dose: 30.0 mg/kg/injection, schedule: Q01DX015 (ip), vehicle: saline, higher = larger tumour) 67 % of control. Moreover, the T/C by setting is: (endpoint: median tumor weight (est.), dose: 30.0 mg/kg/injection, schedule: Q06HX020 (ip), vehicle: saline, higher = larger tumour) 45 % of control; (endpoint: median tumor weight (est.), dose: 36.0 mg/kg/injection, schedule: Q03HX008 (ip), vehicle: saline, higher = larger tumour) 24 % of control; (endpoint: median tumor weight (est.), dose: 38.0 mg/kg/injection, schedule: Q01DX011 (ip), vehicle: saline, higher = larger tumour) 75 % of control; (endpoint: median tumor weight (est.), dose: 45.0 mg/kg/injection, schedule: Q01DX015 (ip), vehicle: saline, higher = larger tumour) 73 % of control; (endpoint: median tumor weight (est.), dose: 45.0 mg/kg/injection, schedule: Q06HX020 (ip), vehicle: saline, higher = larger tumour) 30 % of control; (endpoint: median tumor weight (est.), dose: 50.0 mg/kg/injection, schedule: Q01DX009 (ip), vehicle: saline, higher = larger tumour) 60 % of control. Moreover, the T/C was 5 % of control (endpoint: median tumor weight (est.), dose: 150.0 mg/kg/injection, schedule: Q12HX012 (ip), vehicle: saline, higher = larger tumour); 2 % of control (endpoint: median tumor weight (est.), dose: 220.0 mg/kg/injection, schedule: Q12HX012 (ip), vehicle: saline, higher = larger tumour); 74 % of control (endpoint: median tumor weight (est.), dose: 250.0 mg/kg/injection, schedule: Q04DX003 (ip), vehicle: saline, higher = larger tumour); 64 % of control (endpoint: median tumor weight (est.), dose: 1000.0 mg/kg/injection, schedule: Q04DX003 (ip), vehicle: saline, higher = larger tumour).

Take `C=C1C(=O)O[C@@H]2/C=C(/C)[C@@]3(O)C=C[C@](C)(C[C@@H](OC(=O)/C(=C\C)COC(C)=O)[C@@H]12)O3`: the T/C runs as follows: (endpoint: median survival time, dose: 0.03 mg/kg/injection, schedule: Q01DX009 (ip), vehicle: carboxymethylcellulose (CMC), higher = longer survival) 100 % of control; (endpoint: median survival time, dose: 0.06 mg/kg/injection, schedule: Q01DX009 (ip), vehicle: carboxymethylcellulose (CMC), higher = longer survival) 94 % of control; (endpoint: median survival time, dose: 0.12 mg/kg/injection, schedule: Q01DX009 (ip), vehicle: carboxymethylcellulose (CMC), higher = longer survival) 113 % of control; (endpoint: median survival time, dose: 0.25 mg/kg/injection, schedule: Q01DX009 (ip), vehicle: carboxymethylcellulose (CMC), higher = longer survival) 87 % of control; (endpoint: median survival time, dose: 0.5 mg/kg/injection, schedule: Q01DX009 (ip), vehicle: carboxymethylcellulose (CMC), higher = longer survival) 100 % of control.

With `Nc1ccccc1N`, the T/C (endpoint: median survival time, dose: 25.0 mg/kg/injection, schedule: Q02DX009 (ip), vehicle: saline with Tween-80, higher = longer survival) was 112 % of control; the T/C (endpoint: median survival time, dose: 50.0 mg/kg/injection, schedule: Q02DX009 (ip), vehicle: saline with Tween-80, higher = longer survival) is 118 % of control; the T/C (endpoint: median survival time, dose: 100.0 mg/kg/injection, schedule: Q02DX009 (ip), vehicle: saline with Tween-80, higher = longer survival) is 97 % of control; the T/C (endpoint: median survival time, dose: 200.0 mg/kg/injection, schedule: Q02DX009 (ip), vehicle: saline with Tween-80, higher = longer survival) is 111 % of control.

Take `O=NN(CCCl)C(=O)NC1CCC(NC(=O)N(CCCl)N=O)CC1` (stereo unspecified): the T/C was 123 % of control (endpoint: median survival time, dose: 30.0 mg/kg/injection, schedule: Q04DX004 (ip), vehicle: saline with Tween-80, higher = longer survival); 109 % of control (endpoint: median survival time, dose: 45.0 mg/kg/injection, schedule: Q01DX001 (ip), vehicle: saline with Tween-80, higher = longer survival); 156 % of control (endpoint: median survival time, dose: 45.0 mg/kg/injection, schedule: Q04DX004 (ip), vehicle: saline with Tween-80, higher = longer survival); 104 % of control and 122 % of control (endpoint: median survival time, dose: 75.0 mg/kg/injection, schedule: Q04DX004 (ip), vehicle: saline with Tween-80, higher = longer survival); 174 % of control (endpoint: median survival time, dose: 84.0 mg/kg/injection, schedule: Q01DX001 (ip), vehicle: saline with Tween-80, higher = longer survival); 117 % of control and 222 % of control (endpoint: median survival time, dose: 90.0 mg/kg/injection, schedule: Q07DX002 (ip), vehicle: saline with Tween-80, higher = longer survival). Also, the T/C reads like this: (endpoint: median survival time, dose: 120.0 mg/kg/injection, schedule: Q07DX002 (ip), vehicle: saline with Tween-80, higher = longer survival) 116 % of control; (endpoint: median survival time, dose: 150.0 mg/kg/injection, schedule: Q07DX002 (ip), vehicle: saline with Tween-80, higher = longer survival) 105 % of control; (endpoint: median survival time, dose: 171.0 mg/kg/injection, schedule: Q01DX001 (ip), vehicle: saline with Tween-80, higher = longer survival) 179 % of control; (endpoint: median survival time, dose: 255.0 mg/kg/injection, schedule: Q01DX001 (ip), vehicle: saline with Tween-80, higher = longer survival) 112 % of control; (endpoint: median tumor weight (est.), dose: 30.0 mg/kg/injection, schedule: Q01DX001 (ip), vehicle: saline with Tween-80, higher = larger tumour) 88 % of control; (endpoint: median tumor weight (est.), dose: 45.0 mg/kg/injection, schedule: Q01DX001 (ip), vehicle: saline with Tween-80, higher = larger tumour) 121 % of control. Also, the T/C is 64 % of control (endpoint: median tumor weight (est.), dose: 67.0 mg/kg/injection, schedule: Q01DX001 (ip), vehicle: saline with Tween-80, higher = larger tumour); 83 % of control (endpoint: median tumor weight (est.), dose: 101.0 mg/kg/injection, schedule: Q01DX001 (ip), vehicle: saline with Tween-80, higher = larger tumour); 23 % of control (endpoint: median tumor weight (est.), dose: 152.0 mg/kg/injection, schedule: Q01DX001 (ip), vehicle: saline with Tween-80, higher = larger tumour).

For the compound `N#CCC(=O)O`, the T/C (endpoint: mean tumor weight, dose: 29.0 mg/kg/injection, schedule: Q01DX011 (ip), vehicle: saline, higher = larger tumour) was 103 % of control; the T/C (endpoint: mean tumor weight, dose: 44.0 mg/kg/injection, schedule: Q01DX011 (ip), vehicle: saline, higher = larger tumour) was 104 % of control; the T/C (endpoint: mean tumor weight, dose: 66.0 mg/kg/injection, schedule: Q01DX011 (ip), vehicle: other, higher = larger tumour) was 47 % of control; the T/C (endpoint: mean tumor weight, dose: 66.0 mg/kg/injection, schedule: Q01DX011 (ip), vehicle: saline, higher = larger tumour) is 64 % of control.

Regarding `O=S(=O)(O)C(Nc1ccccc1)c1ccccc1` (stereo unspecified), the T/C by setting is: (endpoint: mean tumor weight, dose: 100.0 mg/kg/injection, schedule: Q01DX011 (ip), vehicle: water, higher = larger tumour) 51 % of control; (endpoint: mean tumor weight, dose: 200.0 mg/kg/injection, schedule: Q01DX011 (ip), vehicle: water, higher = larger tumour) 71 % of control; (endpoint: mean tumor weight, dose: 400.0 mg/kg/injection, schedule: Q01DX011 (ip), vehicle: water, higher = larger tumour) 27 % of control.
